Measurements reported in article PMC5964007 (Nature chemical biology, 2018).

Legend:
[1] = target: T1, E. coli penicillin amidase (Escherichia coli, UniProt P06875); assay: pH-shift colorimetric kinetic assay; assay type: biochemical; conditions: pH 8.4, 10 mM m-nitrophenol, 25 °C, 5 U/ml enzyme
[2] = target: T1, E. coli penicillin amidase; assay: pH-shift colorimetric kinetic assay; assay type: biochemical; conditions: 5 mM MOPS pH 7.2, 25 °C

T1 sequence (P06875 27-235): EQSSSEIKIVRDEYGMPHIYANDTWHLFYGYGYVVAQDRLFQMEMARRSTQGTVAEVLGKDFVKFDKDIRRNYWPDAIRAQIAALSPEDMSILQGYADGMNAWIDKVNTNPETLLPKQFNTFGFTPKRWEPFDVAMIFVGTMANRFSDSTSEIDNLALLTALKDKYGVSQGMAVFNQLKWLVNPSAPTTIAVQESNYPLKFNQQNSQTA
T1 sequence (P06875 290-846): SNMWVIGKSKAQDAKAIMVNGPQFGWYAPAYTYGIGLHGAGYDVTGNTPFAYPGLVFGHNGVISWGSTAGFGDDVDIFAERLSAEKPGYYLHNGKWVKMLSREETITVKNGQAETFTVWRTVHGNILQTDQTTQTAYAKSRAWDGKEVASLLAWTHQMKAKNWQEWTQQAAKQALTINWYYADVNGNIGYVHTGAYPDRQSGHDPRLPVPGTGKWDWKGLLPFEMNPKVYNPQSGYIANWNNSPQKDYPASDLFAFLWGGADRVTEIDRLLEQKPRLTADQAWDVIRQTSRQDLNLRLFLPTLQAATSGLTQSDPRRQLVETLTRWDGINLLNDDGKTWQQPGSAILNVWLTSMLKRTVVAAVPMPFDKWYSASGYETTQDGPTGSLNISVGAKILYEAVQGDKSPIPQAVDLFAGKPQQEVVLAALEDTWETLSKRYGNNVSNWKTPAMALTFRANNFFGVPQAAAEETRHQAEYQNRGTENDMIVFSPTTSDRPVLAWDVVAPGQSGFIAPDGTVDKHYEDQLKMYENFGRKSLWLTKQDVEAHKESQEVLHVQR

Structure (SMILES)	pH-shift colorimetric kinetic assay (m-nitrophenol); LCMS [1]	pH-shift colorimetric kinetic assay (p-nitrophenol) [2]
CC1(C)S[C@H]([C@H](NC(=O)Cc2ccccc2)C(=O)O)N[C@H]1C(=O)O [benzylpenicilloic acid]	when both Put1 and E. coli penicillin amidase were incubated with benzylpenicilloic acid as a substrate	–
CC1(C)S[C@@H]2[C@H](NC(=O)Cc3ccccc3)C(=O)N2[C@H]1C(=O)O [penicillin]	–	E. coli penicillin amidase and commercial B. cereus β-lactamase enzymes exhibit Michaelis-Menten kinetics with penicillin
